Where a name gives a salt, the structure may show the parent alone.
Assays:
[1] = target: T1, human recombinant trypsin (rh-trypsin) (Homo sapiens, UniProt P07477); assay: Trypsin inhibitory activity, human recombinant trypsin, BZiPAR fluorescent substrate; type: biochemical; conditions: 30 min at room temperature, read-out: r-h Trypsin inhibitory activity (IC50)
T1 construct: purchased Wako Pure Chemical Industries, Ltd. 206-17171
Protocol: (§1) 1. Confirmation of Trypsin Inhibitory Activity in Humans and Mice In the experiment, human recombinant trypsin (rh-trypsin; manufactured by Wako Pure Chemical Industries, Ltd.), cat. #206-17171) and mouse trypsin (m-trypsin; purified from the mouse small intestine contents by the present inventors) were used. The method for purifying m-trypsin from the contents of the mouse small intestine is shown below. The compound was dissolved in dimethyl sulfoxide (DMSO), and diluted to an arbitrary concentration (A). A was 100-fold diluted with a buffer (0.1 M Tris (pH 8.0), 0.15 M NaCl, 10 mM CaCl2, 0.05% Brij35) (B). The rh-trypsin was diluted with a buffer to 0.088 μg/mL, and for the m-trypsin, the purified fraction liquid was 50-fold diluted with the buffer (C). […] A BZiPAR solution (Rhodamine Reference Substrate) which is substrate for the trypsin enzyme was diluted with the buffer to […] (D). 5 μL of B, 5 μL of C, and 10 μL of D were added to a 384-well plate, and incubated at room temperature for 30 minutes. Fluorescent signals were detected at a maximum excitement (Ex)/fluorescent wavelength (Em)=497 nm/520 nm using a Tecan Safire Fluorometer. […] Based on the obtained inhibitory rates, the trypsin inhibitory activities (IC50 values, nM) were calculated from the non-linear regression.

ICR mice = assay: Test of increase in fecal protein concentration using mice; type: in vivo, mouse; conditions: 5 mg/kg oral, male ICR mice, feces collected 3 to 9 hours after feeding started, control group = 1; for response vs control in vivo at 5 mg/kg: Mus musculus, po, 9 h, read-out: Fecal protein, Folds (vs. control)
Protocol: 2. Test of Increase in Fecal Protein Concentration Using Mice
For the experiment, 6-week old male ICR mice were used. The experiment was carried out in five mice per group. After fasting the mice for 15 hours, the control group was forcibly orally administered with a 0.5% methyl cellulose (MC) solution, and the test drug group was forcibly orally administered (5 mg/kg) with a solution or suspension obtained by dissolving or suspending the compound in the 0.5% MC solution. The fasting was stopped immediately thereafter, free feeding (CE-2) was started, and then the feces were collected from after 3 hours to after 9 hours, and weighed. All of the obtained feces were suspended in 6 mL of distilled water, and centrifuged at 1,940×g for 10 minutes. The protein concentration in the obtained supernatant was measured by a Bradford method, and the amount of the protein in 1 g of feces was calculated by dividing the protein concentration in the feces by the total weight of feces. Further, the efficacy was investigated from the ratio to the control group. For the compounds that were evaluated multiple times, the average values were calculated.
The results of the activities with an increase in Fecal Protein, assuming a value for the control group as 1, are shown in Table 2.

[2] = system: T2, mouse trypsin (m-trypsin); assay: Trypsin inhibitory activity, mouse trypsin purified from small intestine contents, BZiPAR fluorescent substrate; type: biochemical; conditions: 30 min at room temperature
T2 construct: mouse trypsin (m-trypsin)
Text: 1. Confirmation of Trypsin Inhibitory Activity in Humans and Mice
In the experiment, human recombinant trypsin (rh-trypsin; manufactured by Wako Pure Chemical Industries, Ltd.), cat. #206-17171) and mouse trypsin (m-trypsin; purified from the mouse small intestine contents by the present inventors) were used. The method for purifying m-trypsin from the contents of the mouse small intestine is shown below.
The small intestine contents and the gastrointestinal tract obtained from 10 mice were homogenized in phosphate buffer saline (PBS) using Polytron, and subjected to centrifugation several times at 15,000×g for 10 minutes. The supernatant was mixed at 4° C. for 16 hours with a Benzamidine Sepharose 4 Fast Flow Resin (GE Healthcare: #17-5123-10). After washing the resin with PBS, m-trypsin was eluted with a glycine buffer (pH 3.0) to carry out purification. It was confirmed by Western blot analysis that the obtained purified fraction was recognized as an Anti-mouse Trypsin Antibody (Santa Cruz Biotechnology, Inc.: sc-67388). The method for measuring the trypsin inhibiting activity is shown below.
as §1, with “The” for “1. Confirmation of Trypsin Inhibitory Activity in Humans and Mice In the experiment, human recombinant trypsin (rh-trypsin; manufactured by Wako Pure Chemical Industries, Ltd.), cat. #206-17171) and mouse trypsin (m-trypsin; purified from the mouse small intestine contents by the present inventors) were used. The method for purifying m-trypsin from the contents of the mouse small intestine is shown below. The”

IC50 [1] [nM]	IC50 [2] [nM]	Structure (SMILES)	response vs control in vivo at 5 mg/kg (ICR mice) [%]	Fecal protein, Folds (vs. control) (ICR mice)
0.54	0.6	N=C(N)Nc1ccc(C(=O)Oc2ccc3c(c2)CCC3CC(=O)N[C@@H](Cc2ccc(C(=O)O)cc2)C(=O)O)cc1 (stereo partly shown) [Example 53]	164	–
0.26	0.22	N=C(N)Nc1ccc(C(=O)Oc2ccc3c(c2)CCCC3CC(=O)N(CC(=O)O)Cc2cccc(CC(=O)O)c2)cc1 (stereo not shown) [Example 41]	201	–
1.5	1.7	N=C(N)Nc1ccc(C(=O)Oc2ccc3c(CC(=O)N(CC(=O)O)Cc4cccc(C(=O)O)c4)coc3c2)cc1 [Example 12]	–	–
0.26	0.23	N=C(N)Nc1ccc(C(=O)Oc2ccc3c(c2)CCCC3CC(=O)N(CC(=O)O)Cc2csc(CC(=O)O)c2)cc1 (stereo not shown) [Example 38]	191	–
0.29	0.2	Cl.N=C(N)Nc1ccc(C(=O)Oc2ccc3c(c2)CCCC3CC(=O)N(CC(=O)O)Cc2cccc(C(=O)O)c2)cc1 (single isomer, unassigned) [Example 6, 3-{[({(1R)-6-[(4-carbamimidamidobenzoyl)oxy]-1,2,3,4-tetrahydronaphthalen-1-yl}acetyl)(carboxymethyl)amino]methyl}benzoic acid or an enantiomer thereof]	–	1.84
0.25	0.28	N=C(N)Nc1ccc(C(=O)Oc2ccc3c(c2)CCCC3CC(=O)N2Cc3cc(C(=O)O)ccc3C[C@@H]2C(=O)O)cc1 (stereo partly shown) [Example 30]	168	–
0.3	0.26	C[C@H](C(=O)O)N(Cc1csc(C(=O)O)c1)C(=O)CC1CCCc2cc(OC(=O)c3ccc(NC(=N)N)cc3)ccc21 (single isomer, unassigned) [Example 7, 4-({({(1R)-6-[(4-carbamimidamidobenzoyl)oxy]-1,2,3,4-tetrahydronaphthalen-1-yl}acetyl) [(1R)-1-carboxyethyl]amino}methyl)thiophene-2-carboxylic acid or an epimer at position 1 of the 1,2,3,4-tetrahydronaphthalene]	183	–
0.31	0.41	N=C(N)Nc1ccc(C(=O)Oc2ccc3cc(C(=O)N(CC(=O)O)Cc4csc(C(=O)O)c4)ccc3c2)cc1 [Example 1, 4-{[{6-[(4-carbamimidamidobenzoyl)oxy]-2-naphthoyl}(carboxymethyl)amino]methyl}thiophene-2-carboxylic acid monohydrochloride]	200	–
0.35	0.47	N=C(N)Nc1ccc(C(=O)Oc2ccc3c(c2)CCCC3CC(=O)N(CCC(=O)O)Cc2csc(C(=O)O)c2)cc1 (stereo not shown) [Example 55]	230	–
0.29	0.27	N=C(N)Nc1ccc(C(=O)Oc2ccc3c(C(=O)N(CC(=O)O)[C@@H](Cc4ccccc4)C(=O)O)cccc3c2)cc1 [Example 40]	189	–
0.1	0.18	N=C(N)Nc1ccc(C(=O)Oc2ccc3c(C(=O)N(CC(=O)O)Cc4cccc(C(=O)O)c4)cccc3c2)cc1 [Example 15]	261	–
0.19	0.27	N=C(N)Nc1ccc(C(=O)Oc2ccc3c(c2)CCCC3CC(=O)N(CC(=O)O)Cc2cccc(C(=O)O)c2)cc1 (single isomer, unassigned) [Example 5, 3-{[({(1R)-6-[(4-carbamimidamidobenzoyl)oxy]-1,2,3,4-tetrahydronaphthalen-1-yl}acetyl)(carboxymethyl)amino]methyl}benzoic acid or an enantiomer thereof]	188	–
0.19	0.38	N=C(N)Nc1ccc(C(=O)Oc2ccc3c(C(=O)N(CC(=O)O)Cc4csc(C(=O)O)c4)cccc3c2)cc1 [Example 57]	225	–
0.68	0.74	N=C(N)Nc1ccc(C(=O)Oc2ccc3c(c2)CCC(C(=O)N(CC(=O)O)Cc2cccc(C(=O)O)c2)C3)cc1 (stereo not shown) [Example 58]	218	–
0.33	0.31	N=C(N)Nc1ccc(C(=O)Oc2ccc3c(C(=O)N(CC(=O)O)Cc4cccc(C(=O)O)c4)csc3c2)cc1 [Example 60]	226	–
0.18	0.16	N=C(N)Nc1ccc(C(=O)Oc2ccc3cc(C(=O)N(CC(=O)O)Cc4ccc5sc(C(=O)O)cc5c4)ccc3c2)cc1 [Example 33]	139	–
0.28	0.43	N=C(N)Nc1ccc(C(=O)Oc2ccc3c(c2)CCC3CC(=O)N(CCC(=O)O)Cc2csc(C(=O)O)c2)cc1 (stereo not shown) [Example 50]	156	–
0.34	0.38	N=C(N)Nc1ccc(C(=O)Oc2ccc3c(c2)CCC3CC(=O)N(CC(=O)O)Cc2ccc3sc(C(=O)O)cc3c2)cc1 (stereo not shown) [Example 51]	166	–
0.17	0.19	N=C(N)Nc1ccc(C(=O)Oc2ccc3c(C(=O)N(CCC(=O)O)Cc4csc(C(=O)O)c4)cccc3c2)cc1 [Example 43]	198	–
0.21	0.22	N=C(N)Nc1ccc(C(=O)Oc2ccc3c(C(=O)N[C@@H](Cc4ccc(C(=O)O)cc4)C(=O)O)cccc3c2)cc1 [Example 3, N-{6-[(4-carbamimidamidobenzoyl)oxy]-1-naphthoyl}-4-carboxy-L-phenylalanine monohydrochloride]	209	–
0.39	0.6	C[C@H](C(=O)O)N(Cc1csc(C(=O)O)c1)C(=O)CC1CCCc2cc(OC(=O)c3ccc(NC(=N)N)cc3)ccc21 (stereo partly shown) [Example 19]	251	–
0.29	0.46	N=C(N)Nc1ccc(C(=O)Oc2ccc3c(C(=O)N(CCC(=O)O)Cc4csc(C(=O)O)c4)csc3c2)cc1 [Example 54]	170	–
0.28	0.35	N=C(N)Nc1ccc(C(=O)Oc2ccc3c(c2)CCCC3CC(=O)N(CC(=O)O)Cc2ccc3sc(C(=O)O)cc3c2)cc1 (stereo not shown) [Example 25]	135	–
1.2	1.4	N=C(N)Nc1ccc(C(=O)Oc2ccc3c(c2)OCC3CC(=O)N(CC(=O)O)Cc2cccc(C(=O)O)c2)cc1 (stereo not shown) [Example 10]	–	–
0.35	0.59	N=C(N)Nc1ccc(C(=O)Oc2ccc3cc(C(=O)N(CCC(=O)O)Cc4csc(C(=O)O)c4)ccc3c2)cc1 [Example 56]	145	–
0.33	0.34	N=C(N)Nc1ccc(C(=O)Oc2ccc3c(c2)CCCC3CC(=O)N(CC(=O)O)Cc2ccc(CC(=O)O)cc2)cc1 (stereo not shown) [Example 26]	170	–

From patent publication US9969709B2, “Guanidinobenzoic acid ester compound” (Takeda Pharmaceutical Company Limited, priority 2013, dated 2018)
